Results from patent US20050176739A1, “Therapeutic agent for eating disorders” (priority 1999, published 2005).
Values belong to the molecule of their own block, whether it stands above or below them.

Key:
dd-strain male mice = experiment: Acute toxicity test; type: in vivo, mouse; settings: oral administration, mortality seven days after administration
Description: Test compounds were orally administered to groups of dd-strain male mice weighing 20±1 g, each group consisting of three mice.

Crj:CD (SD) rats [1] = experiment: Action of increasing feed intake by 4-week oral administration (Test Example 1); type: in vivo, rat
Method: Action of Increasing Feed Intake by 4-Week Oral Administration
Compound 1 was suspended in a 0.5% aqueous methyl cellulose solution to a final concentration of 0.6 mg/mL for 6 mg/kg dose, 3 mg/mL for 30 mg/kg dose, 16 mg/mL for 160 mg/kg dose, or 80 mg/mL for 800 mg/kg dose, and the resulting solution was used.
Male and female Crj:CD (SD) rats (SPF) at the age of 5 weeks were purchased from Nippon Charles River Co., Ltd., and were then fed and conditioned for 9 days. During the term, their body weight change and conditions were observed, and animals determined as in healthy conditions were used at the test. At the start of the use, the body weights of the male animals were within a range of 187 to 209 g, while those of the female animals were within a range of 147 to 173 g. During both of the conditioning and feeding term and the test term, the animals were fed with a solid feed for mouse and rat (CRF-1 15 kGy, Oriental Yeast Industry, Co., Ltd.) and with water, ad libitum.
(§1) As to the number of the animals used, 15 each of male and female animals were used for each group. As a negative control group, a group administered a 0.5% aqueous methyl cellulose solution alone was prepared. Based on the body weight at the termination of the conditioning and feeding term, the animals were randomly assigned to individual groups, so that the body weights were uniformly distributed among the resulting individual groups.
Oral administration was selected as the administration route. The solvent or a test compound-containing solution was administered once daily in the morning for 4 weeks in a dose of 1 mL per 100 g of body weight.
The feed intake of the test animals was measured on days 7, 14, 21 and 28. The measured values were tested for homoscedasticity by the Bartlett's test. When the variance was homogeneous, one-way layout analysis of variance was performed; in the case that significance was observed, herein, the control group and the individual dosed groups were tested by the Dunnett's test. When the variance was not homogeneous, the Kruskal-Wallis's rank test was performed; in the case that significance was observed among the groups, the Dunnett's test was conducted.

[2] = Body weight change by 4-week oral administration (Test Example 2); type: in vivo, rat
Method: (§2) Action of Increasing Feed Intake and Body Weight by 4-Week Oral Administration
(§3) Compound 1 was suspended in a 0.5% aqueous methyl cellulose solution to a final concentration of 20 mg/mL for 200 mg/kg dose or 40 mg/mL for 400 mg/kg dose, and the resulting solution was used.
(§4) Male and female Crj:CD (SD) rats (SPF) at the age 5 of weeks were purchased from Nippon Charles River Co., Ltd., and were then fed and conditioned for 7 days. During the term, their body weight change and conditions were observed, and animals determined as in healthy conditions were used at the test. At the start of the use, the body weights of the male animals were within a range of 177.4 to 193.6 g, while those of the female animals were within a range of 141.1 to 160.3 g. During both of the conditioning and feeding term and the test term, the animals were fed with a solid feed for mouse and rat [FR-2, Funabashi Agricultural Farm Co., Ltd.] and with water ad libitum.
as §1, with “5” for “15”
(§5) Oral administration was selected as the administration route. The solvent or the test compound was administered once daily in the morning for 4 weeks in a dose of 1 mL per 100 g of body weight.
(§6) The body weights and feed intake of the test animals were measured on days 0, 7, 14, 21 and 28. The individual measured values were tested, based on the same standards as in the […].

Crj:CD (SD) rats [3] = experiment: Feed intake change by 4-week oral administration (Test Example 2); type: in vivo, rat
Method: as §2, §3, §4
as §1, with “5” for “15”
as §5, §6

[4] = 4-week oral administration, male and female rats
[5] = female rats, 200 mg/kg po once daily, day 0
[6] = female rats, 200 mg/kg po once daily, day 7
[7] = female rats, 200 mg/kg po once daily, day 14
[8] = female rats, 200 mg/kg po once daily, day 21
[9] = female rats, 200 mg/kg po once daily, day 28
[10] = female rats, 400 mg/kg po once daily, day 0
[11] = female rats, 400 mg/kg po once daily, day 7
[12] = female rats, 400 mg/kg po once daily, day 14
[13] = female rats, 400 mg/kg po once daily, day 21
[14] = female rats, 400 mg/kg po once daily, day 28
[15] = male rats, 200 mg/kg po once daily, day 0
[16] = male rats, 200 mg/kg po once daily, day 7
[17] = male rats, 200 mg/kg po once daily, day 14
[18] = male rats, 200 mg/kg po once daily, day 21
[19] = male rats, 200 mg/kg po once daily, day 28
[20] = male rats, 400 mg/kg po once daily, day 0
[21] = male rats, 400 mg/kg po once daily, day 7
[22] = male rats, 400 mg/kg po once daily, day 14
[23] = male rats, 400 mg/kg po once daily, day 21
[24] = male rats, 400 mg/kg po once daily, day 28

Compound: CCn1c(=O)c2c(nc(/C=C/c3ccc(OC)c(OC)c3)n2C)n(CC)c1=O [Compound 1, (E)-8-(3,4-dimethoxystyryl)-1,3-diethyl-7-methylxanthine]
- minimum lethal dose (MLD) (dd-strain male mice): greater than 1000 mg/kg
- effect on feed intake (in words) (Crj:CD (SD) rats [1]; [4]): increased the feed intake both in the males and in the females
- Feed intake (g ± SD) (Crj:CD (SD) rats [1]; female rats, 6 mg/kg po once daily, day 7): 15.93 ± 1.09 g
- Feed intake (g ± SD) (Crj:CD (SD) rats [1]; female rats, 6 mg/kg po once daily, day 14): 18.03 ± 1.37 g
- Feed intake (g ± SD) (Crj:CD (SD) rats [1]; female rats, 6 mg/kg po once daily, day 21): 18.76 ± 1.18 g
- Feed intake (g ± SD) (Crj:CD (SD) rats [1]; female rats, 6 mg/kg po once daily, day 28): 18.80 ± 1.46 g
- Feed intake (g ± SD) (Crj:CD (SD) rats [1]; female rats, 30 mg/kg po once daily, day 7): 17.24 ± 1.19 g
- Feed intake (g ± SD) (Crj:CD (SD) rats [1]; female rats, 30 mg/kg po once daily, day 14): 19.38 ± 1.74 g
- Feed intake (g ± SD) (Crj:CD (SD) rats [1]; female rats, 30 mg/kg po once daily, day 21): 19.93 ± 2.08 g
- Feed intake (g ± SD) (Crj:CD (SD) rats [1]; female rats, 30 mg/kg po once daily, day 28): 20.50 ± 1.96 g
- Feed intake (g ± SD) (Crj:CD (SD) rats [1]; female rats, 160 mg/kg po once daily, day 7): 17.73 ± 1.40 g
- Feed intake (g ± SD) (Crj:CD (SD) rats [1]; female rats, 160 mg/kg po once daily, day 14): 19.56 ± 1.68 g
- Feed intake (g ± SD) (Crj:CD (SD) rats [1]; female rats, 160 mg/kg po once daily, day 21): 20.56 ± 1.73 g
- Feed intake (g ± SD) (Crj:CD (SD) rats [1]; female rats, 160 mg/kg po once daily, day 28): 20.87 ± 2.04 g
- Feed intake (g ± SD) (Crj:CD (SD) rats [1]; female rats, 800 mg/kg po once daily, day 7): 17.30 ± 0.99 g
- Feed intake (g ± SD) (Crj:CD (SD) rats [1]; female rats, 800 mg/kg po once daily, day 14): 19.19 ± 1.44 g
- Feed intake (g ± SD) (Crj:CD (SD) rats [1]; female rats, 800 mg/kg po once daily, day 21): 20.43 ± 1.69 g
- Feed intake (g ± SD) (Crj:CD (SD) rats [1]; female rats, 800 mg/kg po once daily, day 28): 21.13 ± 1.76 g
- Feed intake (g ± SD) (Crj:CD (SD) rats [1]; male rats, 6 mg/kg po once daily, day 7): 21.45 ± 1.28 g
- Feed intake (g ± SD) (Crj:CD (SD) rats [1]; male rats, 6 mg/kg po once daily, day 14): 23.97 ± 1.21 g
- Feed intake (g ± SD) (Crj:CD (SD) rats [1]; male rats, 6 mg/kg po once daily, day 21): 24.96 ± 1.58 g
- Feed intake (g ± SD) (Crj:CD (SD) rats [1]; male rats, 6 mg/kg po once daily, day 28): 25.23 ± 1.80 g
- Feed intake (g ± SD) (Crj:CD (SD) rats [1]; male rats, 30 mg/kg po once daily, day 7): 23.54 ± 2.15 g
- Feed intake (g ± SD) (Crj:CD (SD) rats [1]; male rats, 30 mg/kg po once daily, day 14): 26.12 ± 2.03 g
- Feed intake (g ± SD) (Crj:CD (SD) rats [1]; male rats, 30 mg/kg po once daily, day 21): 27.03 ± 2.07 g
- Feed intake (g ± SD) (Crj:CD (SD) rats [1]; male rats, 30 mg/kg po once daily, day 28): 27.37 ± 2.56 g
- Feed intake (g ± SD) (Crj:CD (SD) rats [1]; male rats, 160 mg/kg po once daily, day 7): 23.94 ± 1.58 g
- Feed intake (g ± SD) (Crj:CD (SD) rats [1]; male rats, 160 mg/kg po once daily, day 14): 26.20 ± 1.77 g
- Feed intake (g ± SD) (Crj:CD (SD) rats [1]; male rats, 160 mg/kg po once daily, day 21): 27.31 ± 1.74 g
- Feed intake (g ± SD) (Crj:CD (SD) rats [1]; male rats, 160 mg/kg po once daily, day 28): 27.81 ± 2.47 g
- Feed intake (g ± SD) (Crj:CD (SD) rats [1]; male rats, 800 mg/kg po once daily, day 7): 22.84 ± 1.81 g
- Feed intake (g ± SD) (Crj:CD (SD) rats [1]; male rats, 800 mg/kg po once daily, day 14): 25.40 ± 2.42 g
- Feed intake (g ± SD) (Crj:CD (SD) rats [1]; male rats, 800 mg/kg po once daily, day 21): 26.67 ± 2.19 g
- Feed intake (g ± SD) (Crj:CD (SD) rats [1]; male rats, 800 mg/kg po once daily, day 28): 27.03 ± 2.37 g
- effect on body weight (in words) [2, 4]: increased the feed intake and body weight
- Body weight (g ± SD) [2, 5]: 151.0 ± 5.7 g
- Body weight (g ± SD) [2, 6]: 178.6 ± 7.6 g
- Body weight (g ± SD) [2, 7]: 206.0 ± 7.1 g
- Body weight (g ± SD) [2, 8]: 232.5 ± 13.4 g
- Body weight (g ± SD) [2, 9]: 255.7 ± 17.3 g
- Body weight (g ± SD) [2, 10]: 152.9 ± 4.5 g
- Body weight (g ± SD) [2, 11]: 178.1 ± 3.3 g
- Body weight (g ± SD) [2, 12]: 207.8 ± 11.5 g
- Body weight (g ± SD) [2, 13]: 236.5 ± 16.3 g
- Body weight (g ± SD) [2, 14]: 259.3 ± 14.3 g
- Body weight (g ± SD) [2, 15]: 191.2 ± 2.4 g
- Body weight (g ± SD) [2, 16]: 247.3 ± 4.8 g
- Body weight (g ± SD) [2, 17]: 313.5 ± 12.1 g
- Body weight (g ± SD) [2, 18]: 371.5 ± 23.9 g
- Body weight (g ± SD) [2, 19]: 419.2 ± 28.0 g
- Body weight (g ± SD) [2, 20]: 189.5 ± 4.4 g
- Body weight (g ± SD) [2, 21]: 242.5 ± 10.7 g
- Body weight (g ± SD) [2, 22]: 304.8 ± 15.7 g
- Body weight (g ± SD) [2, 23]: 361.9 ± 23.8 g
- Body weight (g ± SD) [2, 24]: 415.6 ± 29.2 g
- effect on feed intake (in words) (Crj:CD (SD) rats [3]; [4]): increased the feed intake
- Feed intake (g ± SD) (Crj:CD (SD) rats [3]; [5]): 13.4 ± 1.7 g
- Feed intake (g ± SD) (Crj:CD (SD) rats [3]; [6]): 20.2 ± 1.7 g
- Feed intake (g ± SD) (Crj:CD (SD) rats [3]; [7]): 21.8 ± 1.7 g
- Feed intake (g ± SD) (Crj:CD (SD) rats [3]; [8]): 20.9 ± 2.6 g
- Feed intake (g ± SD) (Crj:CD (SD) rats [3]; [9]): 23.8 ± 3.0 g
- Feed intake (g ± SD) (Crj:CD (SD) rats [3]; [10]): 14.6 ± 1.7 g
- Feed intake (g ± SD) (Crj:CD (SD) rats [3]; [11]): 19.5 ± 2.2 g
- Feed intake (g ± SD) (Crj:CD (SD) rats [3]; [12]): 21.1 ± 2.9 g
- Feed intake (g ± SD) (Crj:CD (SD) rats [3]; [13]): 22.0 ± 2.6 g
- Feed intake (g ± SD) (Crj:CD (SD) rats [3]; [14]): 24.5 ± 2.5 g
- Feed intake (g ± SD) (Crj:CD (SD) rats [3]; [15]): 20.1 ± 1.0 g
- Feed intake (g ± SD) (Crj:CD (SD) rats [3]; [16]): 28.4 ± 1.5 g
- Feed intake (g ± SD) (Crj:CD (SD) rats [3]; [17]): 29.9 ± 1.6 g
- Feed intake (g ± SD) (Crj:CD (SD) rats [3]; [18]): 30.2 ± 3.5 g
- Feed intake (g ± SD) (Crj:CD (SD) rats [3]; [19]): 31.0 ± 1.1 g
- Feed intake (g ± SD) (Crj:CD (SD) rats [3]; [20]): 20.7 ± 1.2 g
- Feed intake (g ± SD) (Crj:CD (SD) rats [3]; [21]): 27.9 ± 2.5 g
- Feed intake (g ± SD) (Crj:CD (SD) rats [3]; [22]): 30.2 ± 3.8 g
- Feed intake (g ± SD) (Crj:CD (SD) rats [3]; [23]): 30.3 ± 3.9 g
- Feed intake (g ± SD) (Crj:CD (SD) rats [3]; [24]): 34.8 ± 4.4 g

- melting point: 201.5 to 202.3 °C
Compound: CCn1c(=O)c2c(nc(/C=C/c3cc(OC)c4c(c3)OCO4)n2C)n(CC)c1=O [Compound 3, (E)-1,3-diethyl-8-(3-methoxy-4,5-methylenedioxystyryl)-7-methylxanthine]
